According to the supplement of paper PMC10307832:

Columns and labels:
Assay in all cases: relative viability (nuclei count vs DMSO), 5 days (fraction); higher = more cells survive
[1] = compound: C1COCCN1C2=NC(=NC3=C2OC4=C3C=CC=N4)C5=CC(=CC=C5)NC(=O)C6=CN=C(C=C6)N + CC(C)C[C@H](NC(=O)[C@H](Cc1ccccc1)NC(=O)c1cnccn1)B(O)O [Bortezomib] (partner 0.002 µM)
Summary of the method: (§1)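 One day after seeding in 1536-well plates, lung cancer cell lines were dosed by pin tool. Dosing was either single-drug or a fixed anchor-drug dose plus five library-drug doses (not always all listed) in √10 steps. After 5 days, nuclei were stained in one fix-and-stain step and counted on 4× images, and relative viability is the nuclei count of treated wells over that of vehicle wells, given as the median of duplicate plates.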

SGI-1776 + Foretinib = compound: CN1CCC(CNc2ccc3ncc(-c4cccc(OC(F)(F)F)c4)n3n2)CC1 [SGI-1776] + COc1cc2c(Oc3ccc(NC(=O)C4(C(=O)Nc5ccc(F)cc5)CC4)cc3F)ccnc2cc1OCCCN1CCOCC1 [Foretinib] (partner 0.25 µM)
Summary of the method: as §1

SGI-1776 + Crizotinib = compound: CN1CCC(CNc2ccc3ncc(-c4cccc(OC(F)(F)F)c4)n3n2)CC1 [SGI-1776] + C[C@@H](Oc1cc(-c2cnn(C3CCNCC3)c2)cnc1N)c1c(Cl)ccc(F)c1Cl [Crizotinib] (partner 1 µM)
Summary of the method: as §1

SGI-1776 + Olaparib = compound: CN1CCC(CNc2ccc3ncc(-c4cccc(OC(F)(F)F)c4)n3n2)CC1 [SGI-1776] + O=C(c1cc(Cc2n[nH]c(=O)c3ccccc23)ccc1F)N1CCN(C(=O)C2CC2)CC1 [Olaparib] (partner 8 µM)
Summary of the method: as §1

## UMC-11
[1]; first compound 0.02 µM
  relative viability: 0.79
[1]; first compound 0.06325 µM
  relative viability: 0.838
[1]; first compound 0.2 µM
  relative viability: 0.669
[1]; first compound 0.6325 µM
  relative viability: 1.08
[1]; first compound 2 µM
  relative viability: 0.519
SGI-1776 + Foretinib; first compound 0.08 µM
  relative viability: 1.02
SGI-1776 + Foretinib; first compound 0.8 µM
  relative viability: 1.03
SGI-1776 + Foretinib; first compound 2.53 µM
  relative viability: 1.08
SGI-1776 + Foretinib; first compound 8 µM
  relative viability: 0.791
SGI-1776 + Crizotinib; first compound 0.08 µM
  relative viability: 0.614
SGI-1776 + Crizotinib; first compound 0.8 µM
  relative viability: 0.498
SGI-1776 + Crizotinib; first compound 2.53 µM
  relative viability: 0.665
SGI-1776 + Crizotinib; first compound 8 µM
  relative viability: 0.169
SGI-1776 + Olaparib; first compound 0.08 µM
  relative viability: 0.337
SGI-1776 + Olaparib; first compound 0.8 µM
  relative viability: 0.433
SGI-1776 + Olaparib; first compound 2.53 µM
  relative viability: 0.289
SGI-1776 + Olaparib; first compound 8 µM
  relative viability: 0.206
